{"source": "ChEMBL document CHEMBL6127052", "about": "“Discovery of membrane-targeting amphiphilic honokiol derivatives containing an oxazolethione moiety to combat methicillin-resistant Staphylococcus aureus (MRSA) infections” (Eur J Med Chem, 2024)", "key": {"[1]": {"experiment": "Toxicity in KM mouse infected with methicillin-resistant Staphylococcus aureus clinical isolate M12 assessed as damage in spleen at 5 to 10 mg/kg, sc measured after 24 hrs by H and E staining based analysis", "format": "organism-based", "conditions": "in vivo, dose 5-10 mg/kg"}, "[2]": {"experiment": "Toxicity in KM mouse assessed as inflammatory cell infiltration in hepatocytes at 20 mg/kg, sc measured after 24 hrs by H and E staining based analysis", "format": "organism-based", "conditions": "in vivo"}, "Staphylococcus aureus [3]": {"tested_on": "Staphylococcus aureus", "experiment": "Antibacterial activity against methicillin-resistant Staphylococcus aureus clinical isolate M12 infected in KM mouse assessed as smooth skin at infection site at 10 mg/kg, sc measured after 24 hrs", "format": "functional, organism-based"}, "Staphylococcus aureus [4]": {"tested_on": "Staphylococcus aureus", "experiment": "Antibacterial activity against methicillin-resistant Staphylococcus aureus clinical isolate M12 infected in sepsis BALB/c mouse model assessed as decrease in degeneration of renal tubular epithelial cells at 6 to 12 mg/kg, ip administered consecutively at 12 hr-interval for 24 hrs measured after 24 hrs post-last dose by H and E staining based analysis", "format": "functional, organism-based", "conditions": "dose 6-12 mg/kg, time 48.0 hrs"}, "[5]": {"experiment": "Toxicity in BALB/c mouse assessed as change in mental status at <15 mg/kg, ip bid for 7 days", "format": "organism-based", "conditions": "in vivo, 168 h, time 7 day"}, "Staphylococcus aureus [6]": {"tested_on": "Staphylococcus aureus", "experiment": "Antibacterial activity against methicillin-resistant Staphylococcus aureus clinical isolate M12 infected in sepsis BALB/c mouse model assessed as decrease in pathological change in white medulla of spleen at 12 mg/kg, ip administered consecutively at 12 hr-interval for 24 hrs measured after 24 hrs post-last dose by H and E staining based analysis", "format": "functional, organism-based", "conditions": "time 48.0 hrs"}, "Staphylococcus aureus [7]": {"tested_on": "Staphylococcus aureus", "experiment": "Bactericidal activity against methicillin-resistant Staphylococcus aureus clinical isolate M12 assessed as inhibition of bacterial growth at 4 times MIC incubated upto 8 hrs by time-kill assay", "format": "functional, organism-based"}, "[8]": {"experiment": "Toxicity in KM mouse assessed as change in RBC count at 20 mg/kg, sc measured after 24 hrs", "format": "organism-based", "conditions": "in vivo"}, "[9]": {"experiment": "Toxicity in KM mouse infected with methicillin-resistant Staphylococcus aureus clinical isolate M12 assessed as histopathological abnormality in lung at 5 to 10 mg/kg, sc measured after 24 hrs by H and E staining based analysis", "format": "organism-based", "conditions": "in vivo, dose 5-10 mg/kg"}, "[10]": {"experiment": "Toxicity in sepsis BALB/c mouse model infected with methicillin-resistant Staphylococcus aureus clinical isolate M12 assessed as survival rate at 6 mg/kg, ip administered consecutively at 12 hr-interval for 7 days measured after 24 hrs post-last dose", "format": "organism-based", "conditions": "in vivo, 192 h, time 8 day"}, "[11]": {"experiment": "Stability in sheep plasma infected with methicillin-resistant Staphylococcus aureus clinical isolate M12 at 16 ug/ml pretreated compound with plasma for 6 hrs followed by bacterial infection for 16 to 18 hrs", "format": "ADME, cell-free, Ovis aries", "conditions": "at 16 µg/mL, time 22-24 hrs"}, "Staphylococcus aureus [12]": {"tested_on": "Staphylococcus aureus", "experiment": "Antibacterial activity against methicillin-resistant Staphylococcus aureus clinical isolate M12 infected in sepsis BALB/c mouse model assessed as decrease in bacterial load in spleen at 12 mg/kg, ip administered consecutively at 12 hr-interval for 24 hrs measured after 24 hrs post-last dose", "format": "functional", "conditions": "time 48 hrs"}, "Staphylococcus aureus [13]": {"tested_on": "Staphylococcus aureus", "experiment": "Antibacterial activity against methicillin-resistant Staphylococcus aureus clinical isolate M12 infected in KM mouse assessed as decrease in pus formation in subcutaneous area at 10 mg/kg, sc measured after 24 hrs", "format": "functional, organism-based"}, "Staphylococcus aureus [14]": {"tested_on": "Staphylococcus aureus", "experiment": "Antibacterial activity against methicillin-resistant Staphylococcus aureus clinical isolate M12 infected in sepsis BALB/c mouse model assessed as decrease in pathological change in white medulla of spleen at 6 mg/kg, ip administered consecutively at 12 hr-interval for 24 hrs measured after 24 hrs post-last dose by H and E staining based analysis", "format": "functional, organism-based", "conditions": "time 48.0 hrs"}, "Staphylococcus aureus [15]": {"tested_on": "Staphylococcus aureus", "experiment": "Antibacterial activity against methicillin-resistant Staphylococcus aureus clinical isolate M12 infected in sepsis BALB/c mouse model assessed as decrease in degeneration of hepatocytes at 6 mg/kg, ip administered consecutively at 12 hr-interval for 24 hrs measured after 24 hrs post-last dose by H and E staining based analysis", "format": "functional, organism-based", "conditions": "time 48.0 hrs"}, "[16]": {"experiment": "Toxicity in sepsis BALB/c mouse model infected with methicillin-resistant Staphylococcus aureus clinical isolate M12 assessed as survival rate at 12 mg/kg, ip administered consecutively at 12 hr-interval for 7 days measured after 24 hrs post-last dose", "format": "organism-based", "conditions": "in vivo, 192 h, time 8 day"}, "Staphylococcus aureus [17]": {"tested_on": "Staphylococcus aureus", "experiment": "Antibacterial activity against methicillin-resistant Staphylococcus aureus clinical isolate M13 by CLSI based micro-broth dilution method", "format": "functional"}, "[18]": {"experiment": "Toxicity in KM mouse assessed as intact structure in skin layers at 20 mg/kg, sc measured after 24 hrs by H and E staining based analysis", "format": "organism-based", "conditions": "in vivo"}, "Escherichia coli": {"tested_on": "Escherichia coli", "experiment": "Antibacterial activity against Escherichia coli ATCC 25922 by CLSI based micro-broth dilution method", "format": "functional"}, "Staphylococcus aureus [19]": {"tested_on": "Staphylococcus aureus", "experiment": "Antibacterial activity against methicillin-resistant Staphylococcus aureus clinical isolate M21 by CLSI based micro-broth dilution method", "format": "functional"}, "[20]": {"experiment": "Toxicity in KM mouse assessed as pathological change in red medulla of spleen at 20 mg/kg, sc measured after 24 hrs by H and E staining based analysis", "format": "organism-based", "conditions": "in vivo"}, "Staphylococcus aureus [21]": {"tested_on": "Staphylococcus aureus", "experiment": "Antibacterial activity against methicillin-resistant Staphylococcus aureus clinical isolate M12 infected in KM mouse assessed as decrease in erythematous pustules in intradermal tissues at 5 mg/kg, sc measured after 24 hrs", "format": "functional, organism-based"}, "[22]": {"experiment": "Toxicity in KM mouse assessed as change in urea level at 20 mg/kg, sc measured after 24 hrs", "format": "organism-based", "conditions": "in vivo"}, "Staphylococcus aureus [23]": {"tested_on": "Staphylococcus aureus", "experiment": "Bactericidal activity against Staphylococcus aureus ATCC 29213 assessed as inhibition of bacterial growth at 4 times MIC incubated upto 8 hrs by time-kill assay", "format": "functional, organism-based"}, "[24]": {"experiment": "Toxicity in KM mouse infected with methicillin-resistant Staphylococcus aureus clinical isolate M12 assessed as damage in kidney at 5 to 10 mg/kg, sc measured after 24 hrs by H and E staining based analysis", "format": "organism-based", "conditions": "in vivo, dose 5-10 mg/kg"}, "[25]": {"experiment": "Toxicity in KM mouse assessed as necrosis in hepatocytes at 20 mg/kg, sc measured after 24 hrs by H and E staining based analysis", "format": "organism-based", "conditions": "in vivo"}, "[26]": {"experiment": "Toxicity in KM mouse assessed as inflammatory cell infiltration in cardiac muscle fibers at 20 mg/kg, sc measured after 24 hrs by H and E staining based analysis", "format": "organism-based", "conditions": "in vivo"}, "Staphylococcus aureus [27]": {"tested_on": "Staphylococcus aureus", "experiment": "Antibacterial activity against methicillin-resistant Staphylococcus aureus clinical isolate M17 by CLSI based micro-broth dilution method", "format": "functional"}, "Staphylococcus aureus [28]": {"tested_on": "Staphylococcus aureus", "experiment": "Antibacterial activity against methicillin-resistant Staphylococcus aureus clinical isolate M12 infected in sepsis BALB/c mouse model assessed as decrease in necrosis in hepatocytes at 12 mg/kg, ip administered consecutively at 12 hr-interval for 24 hrs measured after 24 hrs post-last dose by H and E staining based analysis", "format": "functional, organism-based", "conditions": "time 48.0 hrs"}, "[29]": {"experiment": "Selectivity index, ratio of HC50 for hemolytic activity in sheep erythrocytes to MIC for antibacterial activity against Staphylococcus aureus ATCC 29213", "format": "toxicity, cell-based, RBC"}, "Staphylococcus aureus [30]": {"tested_on": "Staphylococcus aureus", "experiment": "Induction of membrane permeability in methicillin-resistant Staphylococcus aureus clinical isolate M12 at 8 to 32 times MIC measured every 2 mins for 10 times by SYTOX Green dye based analysis", "format": "functional, organism-based"}, "[31]": {"experiment": "Toxicity in KM mouse infected with methicillin-resistant Staphylococcus aureus clinical isolate M12 assessed as damage in lung at 5 to 10 mg/kg, sc measured after 24 hrs by H and E staining based analysis", "format": "organism-based", "conditions": "in vivo, dose 5-10 mg/kg"}, "Staphylococcus aureus [32]": {"tested_on": "Staphylococcus aureus", "experiment": "Antibacterial activity against methicillin-resistant Staphylococcus aureus clinical isolate M12 infected in sepsis BALB/c mouse model assessed as decrease in degeneration of hepatocytes at 12 mg/kg, ip administered consecutively at 12 hr-interval for 24 hrs measured after 24 hrs post-last dose by H and E staining based analysis", "format": "functional, organism-based", "conditions": "time 48.0 hrs"}}, "note": "Active and inactive are the calls of the source. The rule behind the calls is not given here.", "data": [{"smiles": "C=CCc1cc(-c2ccc(OCCC[N+](C)(C)CC(=O)NCCCC)c(CC=C)c2)c2oc(=S)n(Cc3ccc(F)cc3)c2c1.[Br-]", "values": [{"measurement": "Activity", "setting": "[1]", "result": "Non-Toxic"}, {"measurement": "Activity", "setting": "[2]", "result": "Non-Toxic"}, {"measurement": "Activity", "setting": "Staphylococcus aureus [3]", "result": "Active"}, {"measurement": "Activity", "setting": "Staphylococcus aureus [4]", "result": "Active"}, {"measurement": "Activity", "setting": "[5]", "result": "Non-Toxic"}, {"measurement": "Activity", "setting": "Staphylococcus aureus [6]", "result": "Active"}, {"measurement": "Activity", "setting": "Staphylococcus aureus [7]", "result": "Active"}, {"measurement": "Activity", "setting": "[8]", "result": "Non-Toxic"}, {"measurement": "Activity", "setting": "[9]", "result": "Non-Toxic"}, {"measurement": "Survival", "setting": "[10]", "result": 16.7, "unit": "%"}, {"measurement": "Stability", "setting": "[11]", "result": "Stable"}, {"measurement": "Activity", "setting": "Staphylococcus aureus [12]", "result": 1.67, "unit": "log10CFU/g"}, {"measurement": "Activity", "setting": "Staphylococcus aureus [13]", "result": "Active"}, {"measurement": "Activity", "setting": "Staphylococcus aureus [14]", "result": "inactive"}, {"measurement": "Activity", "setting": "Staphylococcus aureus [15]", "result": "inactive"}, {"measurement": "Survival", "setting": "[16]", "result": 33.3, "unit": "%"}, {"measurement": "MIC", "setting": "Staphylococcus aureus [17]", "result": 4, "unit": "µg/mL"}, {"measurement": "Activity", "setting": "[18]", "result": "Non-Toxic"}, {"measurement": "MIC", "setting": "Escherichia coli", "result": "> 128", "unit": "µg/mL"}, {"measurement": "MIC", "setting": "Staphylococcus aureus [19]", "result": 2, "unit": "µg/mL"}, {"measurement": "Activity", "setting": "[20]", "result": "Non-Toxic"}, {"measurement": "Activity", "setting": "Staphylococcus aureus [21]", "result": "inactive"}, {"measurement": "Activity", "setting": "[22]", "result": "Non-Toxic"}, {"measurement": "Activity", "setting": "Staphylococcus aureus [23]", "result": "Active"}, {"measurement": "Activity", "setting": "[24]", "result": "Non-Toxic"}, {"measurement": "Activity", "setting": "[25]", "result": "Non-Toxic"}, {"measurement": "Activity", "setting": "[26]", "result": "Non-Toxic"}, {"measurement": "MIC", "setting": "Staphylococcus aureus [27]", "result": 4, "unit": "µg/mL"}, {"measurement": "Activity", "setting": "Staphylococcus aureus [28]", "result": "Active"}, {"measurement": "selectivity ratio", "setting": "[29]", "result": 95.1}, {"measurement": "Activity", "setting": "Staphylococcus aureus [30]", "result": "Active"}, {"measurement": "Activity", "setting": "[31]", "result": "Non-Toxic"}, {"measurement": "Activity", "setting": "Staphylococcus aureus [32]", "result": "Active"}]}]}
